From PubChem BioAssay AID328 (DTP/NCI, 2004)
Several values for one entry are separate records, joined by “and”; a condition that tells them apart may be missing. Identical values can stand only once. Inconclusive results and toxic doses are left out.

Test system: BDF1 mice, P388 leukemia ip, median survival T/C
Experiment: NCI In Vivo Anticancer Drug Screen. Data for tumor model P388 Leukemia (intraperitoneal) in B6D2F1 (BDF1) mice
Conditions: endpoint: median survival time, higher = longer survival
Outline: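 Antitumour effect was judged in vivo: survival in drug-treated mice, normalised to that of vehicle-dosed controls, gives the reported T/C.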

[1] = dose: 50.0 mg/kg/injection, schedule: Q01DX009 (ip), vehicle: saline with Tween-80
[2] = dose: 100.0 mg/kg/injection, schedule: Q01DX009 (ip), vehicle: saline with Tween-80
[3] = dose: 200.0 mg/kg/injection, schedule: Q01DX009 (ip), vehicle: saline with Tween-80
[4] = dose: 25.0 mg/kg/injection, schedule: Q01DX009 (ip), vehicle: saline with Tween-80
[5] = dose: 25.0 mg/kg/injection, schedule: Q04DX003 (ip), vehicle: saline with Tween-80
[6] = dose: 50.0 mg/kg/injection, schedule: Q04DX003 (ip), vehicle: saline with Tween-80
[7] = dose: 100.0 mg/kg/injection, schedule: Q04DX003 (ip), vehicle: saline with Tween-80
[8] = dose: 6.25 mg/kg/injection, schedule: Q01DX009 (ip), vehicle: saline
[9] = dose: 25.0 mg/kg/injection, schedule: Q01DX009 (ip), vehicle: saline

CC1C2CCCC1(OC(=O)c1cc([N+](=O)[O-])cc([N+](=O)[O-])c1)C2 (configuration not stated)
T/C (dose: 100.0 mg/kg/injection, schedule: Q04DX002 (ip), vehicle: saline with Tween-80): 101 % of control | T/C (dose: 200.0 mg/kg/injection, schedule: Q04DX002 (ip), vehicle: saline with Tween-80): 94 % of control | T/C (dose: 400.0 mg/kg/injection, schedule: Q04DX002 (ip), vehicle: saline with Tween-80): 95 % of control

FC(F)(F)c1cc(NC(=S)N2c3ccccc3-n3cccc3C2c2cccnc2)cc(C(F)(F)F)c1 (configuration not stated)
T/C (dose: 50.0 mg/kg/injection, schedule: Q01DX009 (ip), vehicle: Klucel (hydroxypropylcellulose) (HPC)): 97 % of control | T/C (dose: 100.0 mg/kg/injection, schedule: Q01DX009 (ip), vehicle: Klucel (hydroxypropylcellulose) (HPC)): 89 % of control | T/C (dose: 200.0 mg/kg/injection, schedule: Q01DX009 (ip), vehicle: Klucel (hydroxypropylcellulose) (HPC)): 91 % of control

CC(=O)N/N=C(/C)C(=O)O
T/C (dose: 12.5 mg/kg/injection, schedule: Q01DX009 (ip), vehicle: water): 93 % of control and 102 % of control and 114 % of control | T/C (dose: 12.5 mg/kg/injection, schedule: Q04DX003 (ip), vehicle: water): 95 % of control | T/C (dose: 25.0 mg/kg/injection, schedule: Q04DX003 (ip), vehicle: water): 100 % of control | T/C (dose: 50.0 mg/kg/injection, schedule: Q04DX003 (ip), vehicle: water): 100 % of control

COC(=O)C(Sc1ccc(Cl)cc1)C1SC(=S)N(Cc2ccccc2)C1=O (configuration not stated)
T/C [1]: 104 % of control | T/C [2]: 118 % of control | T/C [3]: 109 % of control

c1ccc2n[se]nc2c1
T/C (dose: 1.56 mg/kg/injection, schedule: Q04DX003 (ip), vehicle: saline): 108 % of control | T/C (dose: 3.13 mg/kg/injection, schedule: Q04DX003 (ip), vehicle: saline): 108 % of control and 109 % of control | T/C (dose: 6.25 mg/kg/injection, schedule: Q04DX003 (ip), vehicle: saline): 106 % of control and 109 % of control | T/C (dose: 12.5 mg/kg/injection, schedule: Q04DX003 (ip), vehicle: saline): 104 % of control

O=C(/C=N/O)c1cccnc1
T/C (dose: 25.0 mg/kg/injection, schedule: Q04DX003 (ip), vehicle: saline sonified): 100 % of control | T/C (dose: 50.0 mg/kg/injection, schedule: Q04DX003 (ip), vehicle: saline sonified): 95 % of control | T/C (dose: 100.0 mg/kg/injection, schedule: Q04DX003 (ip), vehicle: saline sonified): 100 % of control

CC1(c2cccs2)NC(=O)N(Cl)C1=O (configuration not stated)
T/C [4]: 97 % of control | T/C [5]: 94 % of control | T/C [1]: 97 % of control | T/C [6]: 102 % of control | T/C [2]: 108 % of control | T/C [7]: 104 % of control and 107 % of control | T/C [3]: 108 % of control | T/C (dose: 200.0 mg/kg/injection, schedule: Q04DX003 (ip), vehicle: saline with Tween-80): 109 % of control | T/C (dose: 400.0 mg/kg/injection, schedule: Q04DX003 (ip), vehicle: saline with Tween-80): 107 % of control

NC(Cc1cccc(NP(=S)(N2CC2)N2CC2)c1)C(=O)O (configuration not stated)
T/C (dose: 22.0 mg/kg/injection, schedule: Q04DX003 (ip), vehicle: saline): 120 % of control | T/C (dose: 35.0 mg/kg/injection, schedule: Q04DX003 (ip), vehicle: saline): 112 % of control | T/C (dose: 50.0 mg/kg/injection, schedule: Q04DX003 (ip), vehicle: saline): 150 % of control | T/C (dose: 115.0 mg/kg/injection, schedule: Q04DX003 (ip), vehicle: saline): 172 % of control | T/C (dose: 175.0 mg/kg/injection, schedule: Q04DX003 (ip), vehicle: saline): 268 % of control | T/C (dose: 264.0 mg/kg/injection, schedule: Q04DX003 (ip), vehicle: saline): 272 % of control | T/C (dose: 400.0 mg/kg/injection, schedule: Q04DX003 (ip), vehicle: saline): 272 % of control | T/C (dose: 600.0 mg/kg/injection, schedule: Q04DX003 (ip), vehicle: saline): 86 % of control

c1ccc(-c2cc(-c3ccccc3)on2)cc1
T/C [2]: 95 % of control | T/C [3]: 109 % of control | T/C (dose: 400.0 mg/kg/injection, schedule: Q01DX009 (ip), vehicle: saline with Tween-80): 104 % of control

CC(=O)C1C(=O)OC2(C)C(=O)C3=COC(/C=C\C(C)=C/C(C)C)=CC3=CC12 (configuration not stated)
T/C (dose: 75.0 mg/kg/injection, schedule: Q01DX009 (ip), vehicle: saline with Tween-80): 107 % of control | T/C (dose: 150.0 mg/kg/injection, schedule: Q01DX009 (ip), vehicle: saline with Tween-80): 151 % of control

Cc1cccc2cc3cccc[n+]3cc12
T/C (dose: 1.56 mg/kg/injection, schedule: Q01DX009 (ip), vehicle: saline): 104 % of control | T/C (dose: 3.12 mg/kg/injection, schedule: Q01DX009 (ip), vehicle: saline): 104 % of control | T/C [8]: 109 % of control | T/C (dose: 6.75 mg/kg/injection, schedule: Q04DX003 (ip), vehicle: saline): 105 % of control | T/C (dose: 9.2 mg/kg/injection, schedule: Q01DX009 (ip), vehicle: saline): 109 % of control | T/C (dose: 13.5 mg/kg/injection, schedule: Q04DX003 (ip), vehicle: saline): 90 % of control

c1ccc(C23c4ccccc4C(=NC4CCCCC4)C2N3C2CCCCC2)cc1 (configuration not stated)
T/C (dose: 100.0 mg/kg/injection, schedule: Q04DX003 (ip), vehicle: Klucel (hydroxypropylcellulose) (HPC)): 90 % of control | T/C (dose: 200.0 mg/kg/injection, schedule: Q04DX003 (ip), vehicle: Klucel (hydroxypropylcellulose) (HPC)): 100 % of control

CN(C)C(c1ccccc1)C(CBr)C(=O)c1ccc(Br)cc1 (configuration not stated)
T/C [8]: 110 % of control | T/C (dose: 16.5 mg/kg/injection, schedule: Q01DX009 (ip), vehicle: saline): 109 % of control and 116 % of control | T/C [9]: 100 % of control and 118 % of control | T/C (dose: 27.5 mg/kg/injection, schedule: Q04DX003 (ip), vehicle: saline): 104 % of control | T/C (dose: 37.5 mg/kg/injection, schedule: Q01DX009 (ip), vehicle: saline): 113 % of control and 120 % of control | T/C (dose: 55.0 mg/kg/injection, schedule: Q04DX003 (ip), vehicle: saline): 100 % of control

FC(F)(F)C(F)(F)c1nc2nc(Cl)c(Cl)nc2[nH]1
T/C (dose: 25.0 mg/kg/injection, schedule: Q01DX009 (ip), vehicle: other): 100 % of control | T/C (dose: 50.0 mg/kg/injection, schedule: Q01DX009 (ip), vehicle: other): 114 % of control

COC(=O)N1C=Cc2ccccc2C1C#N (configuration not stated)
T/C (dose: 25.0 mg/kg/injection, schedule: Q01DX001 (ip), vehicle: other): 104 % of control | T/C [4]: 105 % of control | T/C [5]: 100 % of control | T/C (dose: 50.0 mg/kg/injection, schedule: Q01DX001 (ip), vehicle: other): 90 % of control | T/C [1]: 110 % of control | T/C [6]: 104 % of control | T/C (dose: 100.0 mg/kg/injection, schedule: Q01DX001 (ip), vehicle: other): 86 % of control | T/C [2]: 110 % of control | T/C [7]: 100 % of control

CC(=O)OC1CCC2(C)C(CCC3(C)C2CCC2C4C5OC(=O)C4(CCC5(C)C)CCC23C)C1(C)C (configuration not stated)
T/C (dose: 10.0 mg/kg/injection, schedule: Q01DX009 (ip), vehicle: Klucel (hydroxypropylcellulose) (HPC)): 105 % of control | T/C (dose: 20.0 mg/kg/injection, schedule: Q01DX009 (ip), vehicle: Klucel (hydroxypropylcellulose) (HPC)): 114 % of control | T/C (dose: 40.0 mg/kg/injection, schedule: Q01DX009 (ip), vehicle: Klucel (hydroxypropylcellulose) (HPC)): 110 % of control

CC(C)c1ccccc1OS(=O)(=O)c1c(F)c(F)c(F)c(F)c1F
T/C (dose: 6.25 mg/kg/injection, schedule: Q01DX001 (ip), vehicle: saline with Tween-80): 104 % of control | T/C (dose: 12.5 mg/kg/injection, schedule: Q01DX001 (ip), vehicle: saline with Tween-80): 109 % of control | T/C (dose: 25.0 mg/kg/injection, schedule: Q01DX001 (ip), vehicle: saline with Tween-80): 118 % of control

CCN(CC)CCNc1ccc(CO)c2sc3ccc(O)cc3c(=O)c12
T/C (dose: 9.88 mg/kg/injection, schedule: Q04DX002 (ip), vehicle: saline with Tween-80): 163 % of control | T/C (dose: 18.75 mg/kg/injection, schedule: Q04DX002 (ip), vehicle: saline with Tween-80): 207 % of control | T/C (dose: 37.5 mg/kg/injection, schedule: Q04DX002 (ip), vehicle: saline with Tween-80): 179 % of control | T/C (dose: 75.0 mg/kg/injection, schedule: Q04DX002 (ip), vehicle: saline with Tween-80): 207 % of control

O=c1[nH]cnc2ccnn12
T/C [9]: 103 % of control | T/C (dose: 50.0 mg/kg/injection, schedule: Q01DX009 (ip), vehicle: saline): 100 % of control | T/C (dose: 75.0 mg/kg/injection, schedule: Q01DX009 (ip), vehicle: saline): 101 % of control | T/C (dose: 100.0 mg/kg/injection, schedule: Q01DX009 (ip), vehicle: saline): 100 % of control | T/C (dose: 200.0 mg/kg/injection, schedule: Q01DX009 (ip), vehicle: saline): 90 % of control
